Legend:
[1] = target: T1, Prostaglandin G/H synthase 2 (Homo sapiens, UniProt P35354); assay: Inhibition of human recombinant COX2 by EIA
T1 sequence (P35354 whole entry): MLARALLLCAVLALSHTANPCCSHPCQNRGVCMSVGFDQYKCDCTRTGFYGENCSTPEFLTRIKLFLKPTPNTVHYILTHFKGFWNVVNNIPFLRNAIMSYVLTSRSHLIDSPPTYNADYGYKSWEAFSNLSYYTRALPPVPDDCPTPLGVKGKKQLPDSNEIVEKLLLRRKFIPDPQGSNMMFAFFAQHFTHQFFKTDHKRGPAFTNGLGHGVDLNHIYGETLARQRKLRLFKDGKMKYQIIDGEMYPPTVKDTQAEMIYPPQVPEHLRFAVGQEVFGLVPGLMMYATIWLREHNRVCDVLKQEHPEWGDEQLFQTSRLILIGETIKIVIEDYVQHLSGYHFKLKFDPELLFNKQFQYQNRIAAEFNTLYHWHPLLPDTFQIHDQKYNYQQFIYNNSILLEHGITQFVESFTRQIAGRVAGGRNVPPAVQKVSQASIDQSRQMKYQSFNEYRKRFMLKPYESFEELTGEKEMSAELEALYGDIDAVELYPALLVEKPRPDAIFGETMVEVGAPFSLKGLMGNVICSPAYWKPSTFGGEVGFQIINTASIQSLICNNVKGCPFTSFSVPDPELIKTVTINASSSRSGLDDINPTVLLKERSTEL

[2] = target: T2, Prostaglandin G/H synthase 1 (Ovis aries, UniProt P05979)
T2 sequence (P05979 whole entry): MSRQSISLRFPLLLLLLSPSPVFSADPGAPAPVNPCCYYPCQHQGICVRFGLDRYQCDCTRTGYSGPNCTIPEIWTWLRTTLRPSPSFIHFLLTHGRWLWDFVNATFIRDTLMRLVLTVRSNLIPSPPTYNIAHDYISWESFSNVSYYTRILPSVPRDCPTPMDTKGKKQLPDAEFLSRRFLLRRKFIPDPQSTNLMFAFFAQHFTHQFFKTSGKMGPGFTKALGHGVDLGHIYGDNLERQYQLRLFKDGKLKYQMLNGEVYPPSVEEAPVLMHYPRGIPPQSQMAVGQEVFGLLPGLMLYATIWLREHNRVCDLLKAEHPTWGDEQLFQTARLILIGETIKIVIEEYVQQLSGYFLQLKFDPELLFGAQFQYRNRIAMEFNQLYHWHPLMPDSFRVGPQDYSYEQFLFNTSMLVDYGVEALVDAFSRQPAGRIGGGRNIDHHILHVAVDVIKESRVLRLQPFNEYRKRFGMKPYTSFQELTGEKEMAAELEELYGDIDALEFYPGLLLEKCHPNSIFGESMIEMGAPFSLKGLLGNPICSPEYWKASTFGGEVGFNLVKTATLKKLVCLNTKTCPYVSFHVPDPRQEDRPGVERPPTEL
Description: Inhibition of ovine COX1 by EIA

[3] = Selectivity index, ratio of IC50 for ovine COX1 to IC50 for human recombinant COX2

Compound	IC50 [1] [µM]	IC50 [2] [µM]	Ratio IC50 [3]
CCCC/C(=C(\c1ccccc1)c1ccc(O)cc1)c1ccc(S(C)(=O)=O)cc1	11.8	> 100	> 8.5
CCCCC(=C(c1ccccc1)c1ccccc1)c1ccc(S(C)(=O)=O)cc1	2.7	9.1	3.4
CCCC/C(=C(\c1ccccc1)c1ccc(OCCF)cc1)c1ccc(S(C)(=O)=O)cc1	22.3	> 100	> 4.5
CS(=O)(=O)c1ccc(C(CCF)=C(c2ccccc2)c2ccccc2)cc1	> 100	> 100	–
CCCC/C(=C(\c1ccccc1)c1ccc(OC)cc1)c1ccc(S(C)(=O)=O)cc1	7.7	> 100	> 13
CCC(=C(c1ccccc1)c1ccccc1)c1ccc(S(C)(=O)=O)cc1	1.2	31.6	26.3
CC/C(=C(\c1ccccc1)c1ccc(OC)cc1)c1ccc(S(C)(=O)=O)cc1	10.7	> 100	> 9.3

Source: ChEMBL document CHEMBL1221239, “Triaryl (Z)-olefins suitable for radiolabeling with carbon-11 or fluorine-18 radionuclides for positron emission tomography imaging of cyclooxygenase-2 expression in pathological disease” (Bioorg Med Chem Lett, 2010)
